Laboratory results reported in patent publication US7863330B2, “Deloxiglumide and proton pump inhibitor combination in the treatment of gastrointestinal disorders” (Rottapharm S.p.A., priority 2006, dated 2011).

What was measured:
[1] = tested on: acute reflux esophagitis in pylorus-ligated rats; assay: Acute reflux esophagitis in pylorus- and limiting ridge-ligated rats; type: in vivo; design: key to Average Score lesions: lesion index 0 = no lesion to 6 = hemorrhage >40 mm/perforation; conditions: for ED50: Rattus norvegicus, intraduodenal, compound administered separately, intraduodenally, from dose-response regression line, read-out: ED50 (dose which reduces the esophagus lesions by 50%); for % Effect vs. control: after 3 hours; for Average Score lesions: esophagus lesion index 0-6 after 3 hours
Method: Male rats of 175-200 g body weight were fasted for 24 hours prior the experiment. Water was allowed ad libitum. Under ether anesthesia, the abdomen was incised along the midline, and both pylorus and limiting ridge (transitional region between the forestomach and corpus) were simultaneously ligated. Consequently, the total capacity of the stomach to hold gastric juice was greatly diminished, resulting in reflux of gastric juice into the esophagus. Following ligation of pylorus and limiting ridge, the test compounds were given intraduodenally (5 ml/kg), and the abdomen was closed by suturing. After 3 hours, rats were killed by ether overdose and the gastroesophageal portion was excised. The lesion in the thoracic esophagus was scored macroscopically, using a lesion index according to the following criteria: no lesion as 0; edema as 1; reddening as 2; the length of hemorrhagic area<20 mm as 3; the length of hemorrhagic area 20-30 mm as 4; the length of hemorrhagic area 30-40 mm as 5; the length of hemorrhagic area>40 mm or perforation as 6.
The doses of the tested compounds which reduce of 50% the esophagus lesions (ED50) and their P=0.05 fiducial limits were calculated from the dose-response regression line.

CCK1 receptors = target: T1, CCK1 receptors (Homo sapiens, UniProt P32238); conditions: cited from earlier work
T1 sequence (P32238 1-428): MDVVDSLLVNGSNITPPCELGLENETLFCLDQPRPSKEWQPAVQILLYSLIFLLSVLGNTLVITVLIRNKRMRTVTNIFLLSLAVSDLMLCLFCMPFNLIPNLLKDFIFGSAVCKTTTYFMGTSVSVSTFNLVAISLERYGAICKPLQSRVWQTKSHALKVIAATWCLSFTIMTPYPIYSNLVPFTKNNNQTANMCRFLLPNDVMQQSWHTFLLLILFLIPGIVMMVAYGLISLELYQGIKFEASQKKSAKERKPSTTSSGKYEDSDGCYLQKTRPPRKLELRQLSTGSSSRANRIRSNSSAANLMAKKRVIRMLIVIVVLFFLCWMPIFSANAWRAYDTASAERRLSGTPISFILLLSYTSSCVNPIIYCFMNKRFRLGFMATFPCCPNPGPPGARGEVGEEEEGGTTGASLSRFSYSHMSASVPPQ

functional dyspepsia = conditions: patients with functional dyspepsia; duodenal infusion of lipid with or without balloon distension; compared to placebo; cited from earlier work
[2] = tested on: CCK release in response to duodenal lipid infusion; conditions: healthy subjects, cited from earlier work
[3] = tested on: gastrointestinal motility; conditions: preclinical and clinical studies; cited from earlier work
[4] = tested on: antro-pyloroduodenal dysmotility; conditions: healthy subjects; intraduodenal infusion of a mixed liquid meal; cited from earlier work
[5] = tested on: CCK-induced delay in gastric emptying; conditions: healthy subjects; cited from earlier work
nonulcer dyspepsia = conditions: cited from earlier work
[6] = tested on: endogenous and exogenous CCK; conditions: cited from earlier work
CCK2 receptors = target: T2, CCK2 receptors (Homo sapiens, UniProt P32239); conditions: cited from earlier work
T2 sequence (P32239 1-447): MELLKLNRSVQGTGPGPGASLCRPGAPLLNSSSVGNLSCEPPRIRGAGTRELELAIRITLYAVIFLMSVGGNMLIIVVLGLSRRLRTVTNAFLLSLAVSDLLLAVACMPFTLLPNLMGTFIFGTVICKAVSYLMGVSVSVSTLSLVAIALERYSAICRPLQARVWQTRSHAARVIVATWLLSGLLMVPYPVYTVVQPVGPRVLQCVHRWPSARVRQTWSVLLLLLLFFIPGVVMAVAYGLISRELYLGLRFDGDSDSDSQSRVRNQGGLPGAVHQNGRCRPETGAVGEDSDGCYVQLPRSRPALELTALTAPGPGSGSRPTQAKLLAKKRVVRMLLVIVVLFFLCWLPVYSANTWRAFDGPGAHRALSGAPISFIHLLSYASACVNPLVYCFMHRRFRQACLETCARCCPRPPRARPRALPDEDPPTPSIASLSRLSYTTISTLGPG

Question: With `CCCCCN(CCCOC)C(=O)[C@@H](CCC(=O)O)NC(=O)c1ccc(Cl)c(Cl)c1` [Dexloxiglumide, R-4-(3,4-dichlorobenzoylamino)-5-(N-3-methoxypropyl-pentylamino)-5-oxo-pentanoic acid] as the molecule, how does the ED50 [1] read?
Answer: 37.5 mg/kg

Question: What about the “% Effect vs. control” value ([1]; dose 10 mg/kg intraduodenally) of the same molecule?
Answer: 0%

Question: What about the “Average Score lesions” value ([1]; dose 10 mg/kg intraduodenally) of the same molecule?
Answer: 5.8

Question: And the “% Effect vs. control” value ([1]; dose 20 mg/kg intraduodenally)?
Answer: 17.2%

Question: What about the “Average Score lesions” value ([1]; dose 20 mg/kg intraduodenally) of the same molecule?
Answer: 4.8

Question: And the “% Effect vs. control” value ([1]; dose 40 mg/kg intraduodenally)?
Answer: 51.7%

Question: And the “Average Score lesions” value ([1]; dose 40 mg/kg intraduodenally)?
Answer: 2.6

Question: And the “% Effect vs. control” value ([1]; dose 60 mg/kg intraduodenally)?
Answer: 62.1%

Question: What about the “Average Score lesions” value ([1]; dose 60 mg/kg intraduodenally) of the same molecule?
Answer: 2.2

Question: What about the “% Effect vs. control” value ([1]; dose 100 mg/kg intraduodenally) of the same molecule?
Answer: 100%

Question: And the “Average Score lesions” value ([1]; dose 100 mg/kg intraduodenally)?
Answer: 0

Question: And the “potency relative to the racemic compound (loxiglumide)” value (CCK1 receptors; anti-CCK activity)?
Answer: approximately twice

Question: What about the dyspepsia symptom scores (functional dyspepsia) of the same molecule?
Answer: significantly improved dyspepsia symptom scores

Question: And the “tolerance to water volume” value ([2]; duodenal lipid infusion)?
Answer: reversed the diminished tolerance to water volume

Question: What about the colonic transit [3] of the same molecule?
Answer: accelerates colonic transit

Question: What about the gallbladder contraction [3] of the same molecule?
Answer: effective inhibitor of gallbladder contraction

Question: What about the gastric emptying [3] of the same molecule?
Answer: accelerates gastric emptying

Question: What about the “lower esophageal sphincter (LES) function” value [3] of the same molecule?
Answer: improves lower esophageal sphincter (LES) function

Question: Which ED50 [1] does the source give for `COc1ccc2[nH]c([S+]([O-])Cc3ncc(C)c(OC)c3C)nc2c1` (stereo not drawn) [Omeprazole] here?
Answer: 5.4 mg/kg

Question: What about the “% Effect vs. control” value ([1]; dose 0.1 mg/kg intraduodenally) of the same molecule?
Answer: 3.4%

Question: And the “Average Score lesions” value ([1]; dose 0.1 mg/kg intraduodenally)?
Answer: 5.6

Question: What about the “% Effect vs. control” value ([1]; dose 0.3 mg/kg intraduodenally) of the same molecule?
Answer: 0%

Question: What about the “Average Score lesions” value ([1]; dose 0.3 mg/kg intraduodenally) of the same molecule?
Answer: 5.8

Question: And the “% Effect vs. control” value ([1]; dose 1.0 mg/kg intraduodenally)?
Answer: 14.3%

Question: And the “Average Score lesions” value ([1]; dose 1.0 mg/kg intraduodenally)?
Answer: 4.8

Question: What about the “% Effect vs. control” value ([1]; dose 3.0 mg/kg intraduodenally) of the same molecule?
Answer: 53.4%

Question: And the “Average Score lesions” value ([1]; dose 3.0 mg/kg intraduodenally)?
Answer: 2.7

Question: With `CCCCCN(CCCOC)C(=O)C(CCC(=O)O)NC(=O)c1ccc(Cl)c(Cl)c1` (racemic) [Loxiglumide, R,S-4-(3,4-dichlorobenzoylamino)-5-(N-3-methoxypropyl-pentylamino)-5-oxo-pentanoic acid] as the molecule, how does the antro-pyloroduodenal dysmotility [4] read?
Answer: modulated antro-pyloroduodenal dysmotility

Question: What about the “exogenous and endogenous CCK-induced delay in gastric emptying of liquids and solids” value [5] of the same molecule?
Answer: reduced

Question: And the dyspeptic symptoms (nonulcer dyspepsia; patients with non-ulcer dyspepsia, 8-week study)?
Answer: significantly improved dyspeptic symptoms

Question: What about the gastric emptying (nonulcer dyspepsia; patients with nonulcer dyspepsia and delayed gastric emptying, comparison to placebo) of the same molecule?
Answer: accelerate gastric emptying

Question: What about the “potency and specificity as CCK receptor antagonist” value (“potency and specificity” below) (CCK1 receptors) of the same molecule?
Answer: potent, specific competitive antagonists

Question: And the proximal gastric relaxation ([2]; duodenal infusion of lipid)?
Answer: the relaxation was reversed

Question: And the intragastric pressure ([2]; duodenal infusion of lipids)?
Answer: able to reverse the lowering of intragastric pressure

Question: And the “activity after oral administration” value [6]?
Answer: active after oral administration

Question: With `CCCN(CCC)C(=O)C(CCC(=O)O)NC(=O)c1ccccc1` (stereo not drawn) [proglumide] as the molecule, how does the “potency and specificity” value (CCK1 receptors) read?
Answer: low potency and specificity

Question: What about the “binding to CCK2 receptors” value (CCK2 receptors) of the same molecule?
Answer: effectively binds CCK2 receptors

Question: Which “potency and specificity” value (CCK1 receptors) does the source give for `CCCCCN(CCCCC)C(=O)C(CCC(=O)O)NC(=O)c1ccc(Cl)c(Cl)c1` (racemic) [Lorglumide, R,S-4-[(3,4-Dichlorobenzoyl)amino]-5-(dipentylamino)-5-oxopentanoic acid] here?
Answer: potent, specific competitive antagonists

Question: What about the “activity after oral administration” value [6] of the same molecule?
Answer: active after oral administration
